Measured values: patent US20220186188A1, “Method for Obtaining Pancreatic Progenitor Cells and Pancreatic Islet Beta Cells By Means of Differentiation of Human Pluripotent Stem Cells” (Asia Regenerative Medicine, Ltd., priority 2019, published 2022)

How the values were obtained:
[1] = test system: pancreatic progenitor cells and pancreatic islet β cells differentiated from human embryonic stem cells; assay: Immunofluorescence detection of PDX1 and PDX1/INS proteins (human embryonic stem cells); assay type: cell-based
Method: (§1) a pancreatic progenitor cell medium was prepared, the medium in step 1) was replaced with the pancreatic progenitor cell medium, and the cells were cultured in a carbon dioxide incubator at 37 degrees Celsius for 5 days, during which the medium was replaced every day, wherein the composition of the pancreatic progenitor cell medium was: with an MCDB131 medium as a basic medium, and the following components at the working concentrations were further included: 0.5% of bovine serum albumin (BSA), 1.5 g/L of sodium bicarbonate, 1×glutamine (GlutaMAX), 10 mM glucose, 0.25 M vitamin C, 1×insulin-transferrin-selenium-ethanolamine additive (ITS-X), 50 ng/ml of fibroblast growth factor 7 (KGF), 0.5 μM SANT1 (with smo as an inhibitor target), 100 nM retinoic acid (TTNPB), 500 nM phorbol 12,13-dibutyrate (PDBu), 2 μM ALK inhibitor (K02288), and 2 μM WNT signaling pathway inhibitor XAV-939 (not added in a control group), with the concentrations all being final concentrations.
b. pancreatic islet β cell medium 2 was prepared, the pancreatic islet β cell medium 1 in above-mentioned step a was replaced with the pancreatic islet β cell medium 2, and the cells were cultured in a carbon dioxide incubator at 37 degrees Celsius for 5 days, during which the medium was replaced every day, wherein the composition of the pancreatic islet β cell medium 1 was: with an MCDB131 medium as a basic medium, and the following components at the working concentrations were further included: 20 mM glucose, 2% of bovine serum albumin (BSA), 1.5 g/L of sodium bicarbonate, 1×glutamine (GlutaMAX), 0.05 mM vitamin C, 1×insulin-transferrin-selenium-ethanolamine additive (ITS-X), 2 μM ALK inhibitor (K02288), 1 μM triiodothyronine (T3), 10 μM YO-01027 (Notch signaling pathway inhibitor), and 10 μM zinc sulfate, with the concentrations all being final concentrations; and the composition of the pancreatic islet β cell medium 2 was: with an MCDB131 medium as a basic medium, and the following components at the working concentrations were further included: 20 mM glucose, 2% of bovine serum albumin (BSA), 1.5 g/L of sodium bicarbonate, 1×glutamine (GlutaMAX), 0.05 mM vitamin C, 1×insulin-transferrin-selenium-ethanolamine additive (ITS-X), 1 μM triiodothyronine (T3), 10 μM Repsox (ALK5 inhibitor), 10 μM vitamin E, 10 μg/ml of heparin sodium, 2 μM R428 (Axl inhibitor), 10 μM zinc sulfate, and 10 mM N-acetyl-L-cysteine (N-cys), with the concentrations all being final concentrations.
Cells in a culture plate were washed three times with a phosphate buffered saline (PBS), 3 minutes each time; the cells were fixed with 4% paraformaldehyde at room temperature for 20 minutes, and washed three times with PBS, 3 minutes each time; a blocking solution was prepared in advance (by adding Triton at a final concentration of 0.3% to 9 ml of DPBS, adding donkey serum at a final concentration of 10%, and uniformly mixing); the above-prepared blocking solution was used for blocking and perforation at room temperature for 2 hours; the blocking solution was soaked up, a working concentration of primary antibody prepared with the blocking solution was then added, and the product was left to stand at room temperature for 30 minutes and then placed in a refrigerator at 4° C. overnight; the next day, the product was washed three times with PBS, 3 minutes each time; a fluorescent secondary antibody of donkey serum was added and incubation was carried out at room temperature for 2 hours; in the same way, the product was washed three times with PBS, 3 minutes each time; the product was incubated with a working solution of the nuclear dye DAPI at room temperature for 10 minutes, and washed three times with PBS, 3 minutes each time; then a fluorescence microscope was used for observation and data were collected. […]

[2] = test system: pancreatic progenitor cells and pancreatic islet β cells differentiated from human induced pluripotent stem cells; assay: Real-time fluorescence quantitative PCR of PDX1, NKX6-1 and INS mRNA (human induced pluripotent stem cells); assay type: cell-based; conditions: qPCR
Method: as §1, with “factor” for “factor 7”, “concentrations. […]” for “concentrations.”

[3] = 2 μM inhibitor in pancreatic progenitor cell stage
[4] = 2 μM inhibitor in pancreatic progenitor cell stage, GAPDH reference

For Oc1nc(-c2ccc(C(F)(F)F)cc2)nc2c1CSCC2 [XAV-939], the “number of insulin INS-positive and PDX1 co-stained pancreatic islet β cells in the mature pancreatic islet β cell stage” value ([1]; 2 μM inhibitor added in pancreatic progenitor cell stage, immunofluorescence) was “significantly increased”, the “PDX1-positive pancreatic progenitor cells (immunofluorescence)” value [1, 3] was “significantly increased” and the “cell growth (total cell number by DAPI)” value [1, 3] was “did not affect the cell growth”. For the same compound, the “transcription level of the insulin gene INS in the mature pancreatic islet β cell stage” value ([2]; 2 μM inhibitor added in pancreatic progenitor cell stage) was “greatly increased”, the “relative expression of mRNA of NKX6-1 in pancreatic progenitor cells” value [2, 4] was “significantly increased” and the “relative expression of mRNA of PDX1 in pancreatic progenitor cells” value [2, 4] was “significantly increased”.
